Measured values published in ChEMBL document CHEMBL1134917, “Substituted 4-anilino-7-phenyl-3-quinolinecarbonitriles as Src kinase inhibitors” (Bioorg Med Chem Lett, 2002).

What was measured:
[1] = Inhibitory concentration required for the Src dependent cell proliferation using Src-transformed fibroblasts
[2] = target: Proto-oncogene tyrosine-protein kinase Src (Homo sapiens, UniProt P12931); experiment: Inhibitory concentration against Src protein tyrosine kinase
[3] = target: Dual specificity mitogen-activated protein kinase kinase 1 (Homo sapiens, UniProt Q02750); experiment: Inhibition of Dual specificity mitogen-activated protein kinase kinase, MEK
Chain of Dual specificity mitogen-activated protein kinase kinase 1 (Q02750 whole entry): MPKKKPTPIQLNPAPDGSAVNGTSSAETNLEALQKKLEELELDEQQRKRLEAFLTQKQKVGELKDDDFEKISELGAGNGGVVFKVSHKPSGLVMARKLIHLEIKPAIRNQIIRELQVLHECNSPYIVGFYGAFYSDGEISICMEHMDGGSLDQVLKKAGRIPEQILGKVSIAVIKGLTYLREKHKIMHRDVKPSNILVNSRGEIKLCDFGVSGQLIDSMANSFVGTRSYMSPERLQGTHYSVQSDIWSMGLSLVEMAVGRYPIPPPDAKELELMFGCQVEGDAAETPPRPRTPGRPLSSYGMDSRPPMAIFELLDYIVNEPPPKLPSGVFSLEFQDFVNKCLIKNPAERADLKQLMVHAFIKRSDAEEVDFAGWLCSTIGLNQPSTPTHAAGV

[4] = target: Cyclin-dependent kinase 4 (Homo sapiens) (UniProt P11802); experiment: Inhibition of Cyclin-dependent kinase 4 (CDK4) at ug/mL; conditions: concentration not given here
Chain of Cyclin-dependent kinase 4 (Homo sapiens) (P11802 whole entry): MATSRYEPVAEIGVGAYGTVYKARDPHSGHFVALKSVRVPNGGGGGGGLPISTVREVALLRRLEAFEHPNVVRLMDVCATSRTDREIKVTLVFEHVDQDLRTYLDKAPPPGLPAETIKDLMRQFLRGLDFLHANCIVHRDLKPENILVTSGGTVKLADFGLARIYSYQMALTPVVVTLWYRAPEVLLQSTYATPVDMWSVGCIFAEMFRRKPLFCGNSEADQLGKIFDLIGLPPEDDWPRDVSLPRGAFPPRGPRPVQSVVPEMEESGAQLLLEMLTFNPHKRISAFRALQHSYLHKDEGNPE

[5] = target: Epidermal growth factor receptor (Homo sapiens, UniProt P00533); experiment: Inhibition of Epidermal growth factor receptor
Chain of Epidermal growth factor receptor (P00533 whole entry): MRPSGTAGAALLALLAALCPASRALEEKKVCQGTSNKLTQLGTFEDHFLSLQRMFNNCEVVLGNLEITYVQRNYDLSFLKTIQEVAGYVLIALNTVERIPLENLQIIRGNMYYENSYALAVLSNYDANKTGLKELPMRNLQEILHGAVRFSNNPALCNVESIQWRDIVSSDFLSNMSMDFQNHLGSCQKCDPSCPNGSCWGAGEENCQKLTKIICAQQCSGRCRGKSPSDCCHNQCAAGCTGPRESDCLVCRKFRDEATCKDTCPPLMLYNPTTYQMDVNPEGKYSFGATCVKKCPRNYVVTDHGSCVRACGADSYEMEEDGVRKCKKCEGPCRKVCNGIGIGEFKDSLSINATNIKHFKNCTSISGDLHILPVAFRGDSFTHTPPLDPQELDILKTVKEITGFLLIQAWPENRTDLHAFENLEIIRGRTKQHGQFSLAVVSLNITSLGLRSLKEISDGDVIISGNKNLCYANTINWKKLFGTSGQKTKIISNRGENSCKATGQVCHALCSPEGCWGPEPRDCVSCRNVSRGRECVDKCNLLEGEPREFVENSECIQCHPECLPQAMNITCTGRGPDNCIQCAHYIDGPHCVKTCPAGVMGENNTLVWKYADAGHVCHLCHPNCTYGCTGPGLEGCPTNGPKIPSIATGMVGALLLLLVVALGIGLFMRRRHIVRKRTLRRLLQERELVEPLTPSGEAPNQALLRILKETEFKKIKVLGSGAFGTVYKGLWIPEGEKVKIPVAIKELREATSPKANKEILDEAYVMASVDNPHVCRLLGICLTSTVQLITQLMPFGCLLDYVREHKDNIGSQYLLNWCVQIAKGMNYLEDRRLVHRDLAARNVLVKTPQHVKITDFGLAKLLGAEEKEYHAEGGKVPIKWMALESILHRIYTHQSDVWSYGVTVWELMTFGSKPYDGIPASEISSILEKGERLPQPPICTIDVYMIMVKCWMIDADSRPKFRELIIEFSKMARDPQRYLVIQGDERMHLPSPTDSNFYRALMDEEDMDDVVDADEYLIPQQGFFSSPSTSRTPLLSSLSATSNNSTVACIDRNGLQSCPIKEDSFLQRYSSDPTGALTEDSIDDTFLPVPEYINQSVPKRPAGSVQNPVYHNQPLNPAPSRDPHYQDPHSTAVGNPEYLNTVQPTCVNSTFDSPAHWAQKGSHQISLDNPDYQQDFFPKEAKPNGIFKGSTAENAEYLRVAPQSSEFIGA

Chain of Proto-oncogene tyrosine-protein kinase Src (P12931 2-536 limits assumed): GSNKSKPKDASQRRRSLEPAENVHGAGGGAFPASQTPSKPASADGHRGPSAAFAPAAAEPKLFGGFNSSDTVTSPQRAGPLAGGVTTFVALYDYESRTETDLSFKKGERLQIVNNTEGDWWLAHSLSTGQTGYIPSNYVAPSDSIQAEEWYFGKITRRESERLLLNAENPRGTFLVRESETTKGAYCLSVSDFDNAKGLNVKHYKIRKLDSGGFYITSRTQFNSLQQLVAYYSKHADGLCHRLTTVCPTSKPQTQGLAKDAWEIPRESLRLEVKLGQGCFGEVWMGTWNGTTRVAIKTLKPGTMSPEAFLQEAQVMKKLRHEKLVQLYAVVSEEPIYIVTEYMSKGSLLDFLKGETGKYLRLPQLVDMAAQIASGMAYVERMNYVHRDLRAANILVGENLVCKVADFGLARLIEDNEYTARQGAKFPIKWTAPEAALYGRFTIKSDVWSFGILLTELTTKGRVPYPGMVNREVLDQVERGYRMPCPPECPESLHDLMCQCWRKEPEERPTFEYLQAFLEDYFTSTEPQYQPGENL

Structure (SMILES)	IC50 [2]	IC50 [3]	inhibition [4]	IC50 [5]	IC50 [1]
COc1cc(Nc2c(C#N)cnc3cc(OCCCN4CCN(C)CC4)c(OC)cc23)c(Cl)cc1Cl [BOSUTINIB]					100 nM
COc1cc(Nc2c(C#N)cnc3cc(-c4cccc(CCN5CCOCC5)c4)c(OC)cc23)c(Cl)cc1Cl	74 nM				12000 nM
COc1cc(Nc2c(C#N)cnc3cc(-c4cccc(CCN5CCOCC5)c4)ccc23)c(Cl)cc1Cl	29 nM				3200 nM
COc1cc(Nc2c(C#N)cnc3cc(-c4ccccc4CN4CCOCC4)ccc23)c(Cl)cc1Cl	4000 nM				> 10000 nM
COc1cc(Nc2c(C#N)cnc3cc(-c4cccc(CN5CCOCC5)c4)ccc23)c(Cl)cc1Cl	28 nM				3900 nM
COc1cc(Nc2c(C#N)cnc3cc(-c4ccc(CN5CCOCC5)cc4)c(OC)cc23)c(Cl)cc1Cl	15 nM				1500 nM
COc1cc(Nc2c(C#N)cnc3cc(-c4cccc(CN5CCOCC5)c4)c(OC)cc23)c(Cl)cc1Cl	150 nM				8100 nM

Continued, in another order:

IC50 [2]	IC50 [3]	inhibition [4]	IC50 [5]	Structure (SMILES)	IC50 [1]
4.7 nM				COc1cc(Nc2c(C#N)cnc3cc(-c4ccc(CN5CCN(CCO)CC5)cc4)ccc23)c(Cl)cc1Cl	71 nM
3 nM				CCN1CCN(Cc2ccc(-c3ccc4c(Nc5cc(OC)c(Cl)cc5Cl)c(C#N)cnc4c3)cc2)CC1	960 nM
14 nM				COc1cc(Nc2c(C#N)cnc3cc(-c4ccc(CCN5CCOCC5)cc4)ccc23)c(Cl)cc1Cl	1000 nM
3.3 nM	280 nM	10%	3000 nM	COc1cc(Nc2c(C#N)cnc3cc(-c4ccc(CN5CCOCC5)cc4)ccc23)c(Cl)cc1Cl	520 nM
11 nM				COc1cc(Nc2c(C#N)cnc3cc(-c4ccc(CCN5CCOCC5)cc4)c(OC)cc23)c(Cl)cc1Cl	1300 nM
3.7 nM				CCN1CCN(CCc2ccc(-c3ccc4c(Nc5cc(OC)c(Cl)cc5Cl)c(C#N)cnc4c3)cc2)CC1	1900 nM
14 nM				COc1cc(Nc2c(C#N)cnc3cc(-c4cccc(CN5CCN(C)CC5)c4)ccc23)c(Cl)cc1Cl	2800 nM
7 nM				CCN1CCN(Cc2ccc(-c3cc4ncc(C#N)c(Nc5cc(OC)c(Cl)cc5Cl)c4cc3OC)cc2)CC1	2000 nM
